Structures are written as SMILES.

Assay [1] deals with T1, SMYD3 (Homo sapiens, UniProt Q9H7B4).
T1 construct: The SMYD3 full length enzyme was produced in-house by expression (with an N-terminal 6×His tag) in E. coli; 6xHis (N); made in house; host or cells: E. coli
T1 sequence (Q9H7B4 1-428): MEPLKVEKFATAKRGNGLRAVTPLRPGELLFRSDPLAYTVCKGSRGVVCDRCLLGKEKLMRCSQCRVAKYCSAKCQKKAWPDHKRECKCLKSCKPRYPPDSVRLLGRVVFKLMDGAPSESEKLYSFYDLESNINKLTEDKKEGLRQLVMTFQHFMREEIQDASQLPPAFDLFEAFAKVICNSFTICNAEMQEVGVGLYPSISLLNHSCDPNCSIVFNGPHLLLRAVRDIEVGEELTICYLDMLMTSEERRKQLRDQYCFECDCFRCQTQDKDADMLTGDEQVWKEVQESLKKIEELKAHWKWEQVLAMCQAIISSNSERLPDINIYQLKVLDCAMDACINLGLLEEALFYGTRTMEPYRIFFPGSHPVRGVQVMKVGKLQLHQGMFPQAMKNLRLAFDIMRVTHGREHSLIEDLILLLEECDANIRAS
Put plainly: SMYD3 Scintillation Proximity Assay (SPA), methylation of MAP3K2 Peptide. Type of assay: biochemical. The conditions noted are these: SMYD3 full length enzyme 10 nM, 3H-SAM 125 nM, MAP3K2 Peptide 1 μM, 120 min at 22° C. The protocol:
SMYD3 Scintillation Proximity Assay (SPA)
The SMYD3 full length enzyme was produced in-house by expression (with an N-terminal 6×His tag) in E. coli and purification by affinity chromatography on a Ni-NTA Sepharose column followed by a size exclusion chromatography step on a Superdex 200 16/60 column (GE Healthcare).
To this end, 100-fold concentrated compound solutions (in DMSO) were previously prepared by serial dilution (1:3.4) of 2 mM stocks in a clear low volume 384-well source microtiter plate (Greiner Bio-One), from which 100 nl of compounds were transferred into a white low volume test microtiter plate from the same supplier. […] The resulting mixture (5 μl final volume) was shortly centrifuged (2 min., 1500 rpm) and incubated at 22° C. during 120 min. […] Plates containing the stopped reaction were sealed with transparent adhesive foil (Perkin Elmer), centrifuged (2 min., 1500 rpm), and further incubated overnight at 4° C. in order to allow the SPA signals to develop. Subsequently, the amount of product was evaluated by measuring the energy transfer from the […] emitted by the 3H-labeled substrate to the scintillator co-polymerized in the bead's matrix, using a TopCount NXT scintillation counter (Packard) with the standard instrument settings for this purpose. The resulting scintillation counts were taken as indicator for the amount of methylated peptide per well. […] IC50 values were calculated by fitting the normalized inhibition data to a 4-parameter logistic equation using the XLFit analysis software (IDBS).
(In general: Scintillation proximity formats need no separation of bound from free tracer.)

Assay [2] addresses T2, untagged full length SMYD3 (Homo sapiens, UniProt Q9H7B4).
T2 construct: As protein untagged full length SMYD3 was used
T2 sequence (Q9H7B4 1-428): T1 sequence (Q9H7B4 1-428)
Put plainly: Thermal Shift Assay. Type of assay: binding. The following applies: protein 1.5-2.0 μM, 5× SYPRO Orange, scans 25° C. to 80° C.; control 4% DMSO. The protocol:
Thermal Shift Assay Thermal melting experiments were performed with a ViiA™ Real-Time PCR machine (Thermo Fisher Scientific) in 384-well microliter plate with a final volume of 5 μL. Melting curves were obtained at a protein concentration of 1.5-2.0 μM and 5× SYPRO Orange (Invitrogen) using buffer containing 20 mM Tris pH7.0; 150 mM NaCl; 1.0 mM DTT. As protein untagged full length SMYD3 was used. […] As control 4% DMSO was used. Scans were measured from 25° C. to 80° C. at a scanning rate of 0.1° C./sec. All TSA data were analyzed by using Genedata Assay Analyzer.

As a reminder, the IC50 is the concentration that gives 50% inhibition. Higher therefore signals weaker potency in that assay. `Cc1nocc1C(=O)N1c2ccc(C(=O)NCCC3CC3)cc2NC(=O)C(C)C1C` (single isomer, unassigned) [Example 11, N-(2-cyclopropylethyl)-2,3-dimethyl-1-[(3-methyl-1,2-oxazol-4-yl)carbonyl]-4-oxo-2,3,4,5-tetrahydro-1H-1,5-benzodiazepine-7-carboxamide] showed an IC50 in assay [1] of 12900 nM. The “Thermal shift assay (° C.)” value in assay [2] turned out to be 3.50 °C.

Turning to `Cc1nocc1C(=O)N1c2ccc(C(=O)NCCC3CCC3)cc2NC(=O)C(C)C1C` (single isomer, unassigned) [Example 13, N-(2-cyclobutylethyl)-2,3-dimethyl-1-[(3-methyl-1,2-oxazol-4-yl)carbonyl]-4-oxo-2,3,4,5-tetrahydro-1H-1,5-benzodiazepine-7-carboxamide], in assay [1], the IC50 is 4620 nM. The “Thermal shift assay (° C.)” value in assay [2] came to 3.71 °C.

On to `C[C@H]1CC(=O)Nc2cc(C(=O)NCCC3CC3)ccc2N1C(=O)N(C)C1CCNCC1` [Example 45, (2S)—N^7-(2-cyclopropylethyl)-N^1,2-dimethyl-4-oxo-N^1-(piperidin-4-yl)-2,3,4,5-tetrahydro-1H-1,5-benzodiazepine-1,7-dicarboxamide], for which the IC50 in assay [1] turned out to be 390 nM. Also, in assay [2], the “Thermal shift assay (° C.)” value worked out at 7.24 °C.

For `C[C@H]1CC(=O)Nc2cc(C(=O)NCCC3CC3)ccc2N1C(=O)N1CC2CC2C1` (stereo partly drawn) [Example 23, (2S)-1-(3-azabicyclo[3.1.0]hex-3-ylcarbonyl)-N-(2-cyclopropylethyl)-2-methyl-4-oxo-2,3,4,5-tetrahydro-1H-1,5-benzodiazepine-7-carboxamide], the IC50 in assay [1] stood at 58.9 nM. Besides, in assay [2], the “Thermal shift assay (° C.)” value stood at 9.88 °C.

Source of the values: patent publication US11161825B2, “4-oxo-2,3,4,5-tetrahydro-1H-1,5-benzodiazepine-7-carboxamides” (Bayer Aktiengesellschaft, priority 2017, dated 2021).
